Assay results: ChEMBL document CHEMBL1201862, “PubChem BioAssay data set” (2004)
Active and inactive are the calls of the source.

Assays:
[1] = target: Induced myeloid leukemia cell differentiation protein Mcl-1 (Homo sapiens, UniProt Q07820); assay type: functional
Nonstructural protein 1 = Nonstructural protein 1 (Influenza A virus, UniProt Q194T2); assay type: functional, Influenza A virus (A/California/07/2009(H1N1))
[2] = target: T1, Replicative DNA helicase DnaB (Mycobacterium tuberculosis, UniProt P9WMR3); test: DnaB intein splicing inhibitors, dose response, biochemical, cell-free fluorescence (AID 449749); assay type: functional
T1 sequence (P9WMR3 whole entry): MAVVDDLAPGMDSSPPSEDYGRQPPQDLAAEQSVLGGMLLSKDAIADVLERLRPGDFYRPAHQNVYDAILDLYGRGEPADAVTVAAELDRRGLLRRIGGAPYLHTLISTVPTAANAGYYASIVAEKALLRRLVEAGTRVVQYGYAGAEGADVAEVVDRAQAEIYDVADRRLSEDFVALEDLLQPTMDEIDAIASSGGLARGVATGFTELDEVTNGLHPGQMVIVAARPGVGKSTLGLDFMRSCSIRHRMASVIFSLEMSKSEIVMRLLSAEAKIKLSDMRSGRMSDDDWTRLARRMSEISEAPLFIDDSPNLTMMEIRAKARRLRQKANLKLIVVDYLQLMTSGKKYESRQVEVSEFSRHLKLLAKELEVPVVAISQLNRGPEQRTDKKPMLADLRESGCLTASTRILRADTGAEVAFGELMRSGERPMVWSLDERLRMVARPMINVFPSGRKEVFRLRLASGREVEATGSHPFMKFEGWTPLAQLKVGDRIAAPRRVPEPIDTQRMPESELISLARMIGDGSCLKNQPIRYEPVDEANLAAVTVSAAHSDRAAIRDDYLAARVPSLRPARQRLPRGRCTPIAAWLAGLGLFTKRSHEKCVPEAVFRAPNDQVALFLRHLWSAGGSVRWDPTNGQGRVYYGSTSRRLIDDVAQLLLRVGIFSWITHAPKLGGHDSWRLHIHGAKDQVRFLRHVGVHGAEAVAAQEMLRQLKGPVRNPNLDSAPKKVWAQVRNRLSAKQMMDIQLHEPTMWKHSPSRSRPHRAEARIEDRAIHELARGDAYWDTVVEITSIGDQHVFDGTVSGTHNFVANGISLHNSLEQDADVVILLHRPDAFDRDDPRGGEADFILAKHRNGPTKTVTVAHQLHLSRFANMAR

Protein RecA = target: T2, Protein RecA (Mycobacterium tuberculosis, UniProt P9WHJ3); test: Fluorescence Cell-Free Homogeneous Dose Retest to Identify Inhibitors of RecA-Intein Splicing Activity. [Related pubchem assays (depositor defined):AID2097, AID2223, AID489010, AID492950]; assay type: functional
T2 sequence (P9WHJ3 whole entry): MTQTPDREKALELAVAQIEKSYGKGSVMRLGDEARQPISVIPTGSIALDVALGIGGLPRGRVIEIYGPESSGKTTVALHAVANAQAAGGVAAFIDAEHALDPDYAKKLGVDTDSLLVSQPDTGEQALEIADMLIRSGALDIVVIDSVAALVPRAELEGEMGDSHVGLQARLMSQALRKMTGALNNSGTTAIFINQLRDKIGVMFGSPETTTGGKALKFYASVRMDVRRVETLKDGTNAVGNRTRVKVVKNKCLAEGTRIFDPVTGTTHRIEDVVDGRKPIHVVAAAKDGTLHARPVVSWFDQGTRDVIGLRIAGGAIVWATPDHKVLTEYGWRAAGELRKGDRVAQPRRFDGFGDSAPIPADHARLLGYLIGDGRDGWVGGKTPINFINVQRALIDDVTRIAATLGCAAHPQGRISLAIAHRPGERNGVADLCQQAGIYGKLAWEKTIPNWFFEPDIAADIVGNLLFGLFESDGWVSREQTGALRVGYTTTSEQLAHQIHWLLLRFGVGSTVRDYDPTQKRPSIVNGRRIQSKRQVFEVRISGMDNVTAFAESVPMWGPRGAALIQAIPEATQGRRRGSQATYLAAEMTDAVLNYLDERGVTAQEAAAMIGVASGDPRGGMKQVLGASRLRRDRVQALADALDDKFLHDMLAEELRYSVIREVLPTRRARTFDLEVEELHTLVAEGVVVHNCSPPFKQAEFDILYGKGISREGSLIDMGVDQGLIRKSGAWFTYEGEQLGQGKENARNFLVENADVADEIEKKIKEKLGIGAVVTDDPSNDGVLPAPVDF

[3] = microbe, parasite or virus in culture; assay type: functional; details: Mycobacterium tuberculosis
[4] = THP-1 cell cytotoxicity, dose response, cytotoxicity control for non-replicating M. tuberculosis project (AID 489025); assay type: functional
[5] = Luminescence Cell-Based Dose Retest to Confirm Inhibitors of Cancer Stem Cells. [Related pubchem assays (depositor defined):AID2717, AID2721]; assay type: functional; details: Homo sapiens
[6] = Vero E6 cell cytotoxicity, dose response, cytotoxicity control for non-replicating M. tuberculosis project, secondary assay (AID 492998); assay type: functional, VeroE6; details: Vero C1008
[7] = target: T3, Microphthalmia-associated transcription factor (Homo sapiens, UniProt O75030); test: TRPM1 promoter luciferase signal decrease, dose response, MITF inhibitor project, cell-based, SK-MEL-5, cherry-picked, set 3 (AID 493073); assay type: functional
T3 sequence (O75030 whole entry): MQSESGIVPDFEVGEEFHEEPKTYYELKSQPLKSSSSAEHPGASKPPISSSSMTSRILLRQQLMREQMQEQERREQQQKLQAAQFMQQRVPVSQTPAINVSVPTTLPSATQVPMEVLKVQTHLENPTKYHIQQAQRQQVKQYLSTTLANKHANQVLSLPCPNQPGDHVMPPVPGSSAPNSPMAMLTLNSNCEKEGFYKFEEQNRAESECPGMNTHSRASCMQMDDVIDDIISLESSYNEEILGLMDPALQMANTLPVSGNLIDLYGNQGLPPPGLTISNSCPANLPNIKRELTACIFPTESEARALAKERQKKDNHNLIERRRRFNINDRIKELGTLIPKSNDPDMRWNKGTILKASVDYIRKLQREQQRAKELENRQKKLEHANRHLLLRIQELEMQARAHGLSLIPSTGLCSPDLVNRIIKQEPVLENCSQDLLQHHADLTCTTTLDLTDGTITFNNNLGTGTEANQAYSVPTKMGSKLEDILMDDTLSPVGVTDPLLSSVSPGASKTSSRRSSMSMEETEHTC

cells = assay type: functional
Coagulation factor XII = target: T4, Coagulation factor XII (Homo sapiens, UniProt P00748); assay type: functional;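 note: activated factor XIIa alpha cleaving a fluorogenic AMC peptide substrate; inhibitor potency from loss of enzyme activity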
T4 sequence (P00748 whole entry): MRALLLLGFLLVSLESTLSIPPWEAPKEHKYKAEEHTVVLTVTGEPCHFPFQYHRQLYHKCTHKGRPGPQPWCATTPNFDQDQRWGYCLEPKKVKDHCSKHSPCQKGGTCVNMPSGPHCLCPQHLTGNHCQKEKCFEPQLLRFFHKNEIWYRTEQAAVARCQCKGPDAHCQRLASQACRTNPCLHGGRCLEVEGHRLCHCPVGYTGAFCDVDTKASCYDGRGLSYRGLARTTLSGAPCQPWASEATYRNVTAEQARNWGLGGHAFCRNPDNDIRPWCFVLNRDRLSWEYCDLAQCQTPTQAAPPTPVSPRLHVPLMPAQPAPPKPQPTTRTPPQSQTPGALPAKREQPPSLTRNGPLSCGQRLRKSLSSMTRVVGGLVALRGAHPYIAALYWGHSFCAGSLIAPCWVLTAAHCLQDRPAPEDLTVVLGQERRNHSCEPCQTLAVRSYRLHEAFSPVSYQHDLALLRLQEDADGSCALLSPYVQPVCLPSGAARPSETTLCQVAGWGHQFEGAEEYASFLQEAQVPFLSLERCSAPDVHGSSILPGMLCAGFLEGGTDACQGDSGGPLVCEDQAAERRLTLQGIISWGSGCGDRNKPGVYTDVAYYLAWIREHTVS

Cytochrome P450 3A4 = Cytochrome P450 3A4 (Homo sapiens, UniProt P08684);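 note: CYP3A4 tested as one member of a cytochrome P450 panel screen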
Chain of Cytochrome P450 3A4 (P08684 whole entry): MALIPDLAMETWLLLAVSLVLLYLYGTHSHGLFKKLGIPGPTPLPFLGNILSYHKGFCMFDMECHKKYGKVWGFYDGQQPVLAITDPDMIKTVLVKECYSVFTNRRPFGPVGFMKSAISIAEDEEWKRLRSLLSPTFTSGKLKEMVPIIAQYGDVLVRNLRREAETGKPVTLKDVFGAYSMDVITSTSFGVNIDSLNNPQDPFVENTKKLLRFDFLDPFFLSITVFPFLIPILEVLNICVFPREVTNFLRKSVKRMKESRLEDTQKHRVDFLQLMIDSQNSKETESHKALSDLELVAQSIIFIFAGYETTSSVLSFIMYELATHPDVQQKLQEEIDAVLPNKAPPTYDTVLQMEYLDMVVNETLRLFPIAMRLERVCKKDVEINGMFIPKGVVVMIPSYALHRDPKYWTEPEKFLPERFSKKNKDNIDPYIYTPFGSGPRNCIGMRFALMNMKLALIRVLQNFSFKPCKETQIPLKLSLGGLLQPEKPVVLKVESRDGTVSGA

[8] = inhibitors of intracellular T. cruzi replication, confirmation, NIH3T3 host cells, beta-gal luminescence (AID 2044); assay type: functional, cell-based;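 note: intracellular parasites grown in NIH/3T3 mouse fibroblasts as host cells; luminescent beta-galactosidase reporter signal from transgenic T. cruzi replicating inside host cells; inhibitors lower the luminescence signal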
[9] = cytotoxicity toward NIH3T3 fibroblasts, dose response, counter-screen, cell-based, ATP luminescence, mouse fibroblasts (AID 2010); assay type: functional;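 note: cells exposed to compound for about 90 hours before reading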
[10] = target: DNA dC->dU-editing enzyme APOBEC-3A (Homo sapiens, UniProt P31941); test: Dose Response confirmation of small molecule APOBEC3A DNA Deaminase Inhibitors via a fluorescence-based single-stranded DNA deaminase assay. [Related pubchem assays (depositor defined):AID493011, AID493024]; assay type: functional
Chain of DNA dC->dU-editing enzyme APOBEC-3A (P31941 whole entry): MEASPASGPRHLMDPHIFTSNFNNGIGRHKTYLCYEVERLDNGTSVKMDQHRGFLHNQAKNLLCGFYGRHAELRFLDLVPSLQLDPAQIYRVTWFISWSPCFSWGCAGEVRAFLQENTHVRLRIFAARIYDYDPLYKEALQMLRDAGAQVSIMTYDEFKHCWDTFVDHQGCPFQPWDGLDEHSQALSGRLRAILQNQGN

[11] = target: DNA dC->dU-editing enzyme APOBEC-3G (Homo sapiens, UniProt Q9HC16); assay type: functional;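 note: Dose-response counterscreen measuring inhibition of APOBEC3G DNA deaminase activity, run while confirming APOBEC3A inhibitors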
Chain of DNA dC->dU-editing enzyme APOBEC-3G (Q9HC16 whole entry): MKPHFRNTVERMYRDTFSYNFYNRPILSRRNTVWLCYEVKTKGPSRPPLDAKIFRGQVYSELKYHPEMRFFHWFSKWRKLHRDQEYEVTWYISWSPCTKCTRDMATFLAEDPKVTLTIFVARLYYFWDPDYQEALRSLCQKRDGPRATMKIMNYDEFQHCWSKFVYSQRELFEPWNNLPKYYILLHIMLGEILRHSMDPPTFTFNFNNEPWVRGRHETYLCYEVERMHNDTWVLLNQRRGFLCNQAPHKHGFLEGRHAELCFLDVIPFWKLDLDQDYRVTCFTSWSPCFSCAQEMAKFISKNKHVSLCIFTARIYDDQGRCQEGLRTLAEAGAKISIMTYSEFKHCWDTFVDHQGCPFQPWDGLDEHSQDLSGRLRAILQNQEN

[12] = HEp-2 cell cytotoxicity, dose response, cytotoxicity control for RSV inhibitor project, HTS (AID 2410); assay type: functional; details: human respiratory syncytial virus
[13] = growth suppression of PTEN-null colon cells, dose response, cell-based, HCT116 PTEN knockout (AID 1047); assay type: functional;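 note: HCT116 colon tumor cells with PTEN knocked out; cells exposed to compound for 60 hours before readout; potency for loss of cell viability measured by luminescence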
[14] = growth suppression of beta-catenin-knockout colon cells, dose response, cell-based, HCT116, human colon tumor (AID 1045); assay type: functional;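 note: HCT116 colon tumor cells with beta catenin knocked out; cells exposed to compound for 60 hours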
[15] = target: T5, Ubiquitin-conjugating enzyme E2 N (Homo sapiens, UniProt P61088); assay type: functional;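 note: Dose-response confirmation in a TR-FRET assay detecting UBC13-driven polyubiquitin chain formation, inhibition measured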
T5 sequence (P61088 whole entry): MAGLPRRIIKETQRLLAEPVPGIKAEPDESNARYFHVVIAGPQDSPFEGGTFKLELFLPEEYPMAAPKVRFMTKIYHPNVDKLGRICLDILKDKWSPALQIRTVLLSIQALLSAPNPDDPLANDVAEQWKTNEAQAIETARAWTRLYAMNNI

Hexokinase = target: T6, Hexokinase (Trypanosoma brucei, UniProt Q38C41); test: Confirmation assay for inhibitors of Trypanosoma brucei hexokinase 1-Analogue-first series. [Related pubchem assays (depositor defined):AID1430, AID1632, AID2516, AID2560, AID2579, AID2600, AID449725, AID492951]; assay type: functional
T6 sequence (Q38C41 whole entry): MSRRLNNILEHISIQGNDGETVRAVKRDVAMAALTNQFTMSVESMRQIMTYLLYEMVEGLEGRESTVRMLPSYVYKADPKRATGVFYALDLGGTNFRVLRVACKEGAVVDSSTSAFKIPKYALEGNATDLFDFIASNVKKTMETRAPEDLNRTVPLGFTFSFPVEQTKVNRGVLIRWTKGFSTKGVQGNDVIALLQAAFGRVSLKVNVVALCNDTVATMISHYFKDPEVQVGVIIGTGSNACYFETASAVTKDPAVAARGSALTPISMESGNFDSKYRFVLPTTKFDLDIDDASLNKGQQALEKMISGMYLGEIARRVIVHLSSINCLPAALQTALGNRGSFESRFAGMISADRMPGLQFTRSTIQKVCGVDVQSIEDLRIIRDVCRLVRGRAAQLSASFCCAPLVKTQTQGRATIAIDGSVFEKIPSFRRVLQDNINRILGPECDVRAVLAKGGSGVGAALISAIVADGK

Chain of Nonstructural protein 1 (Q194T2 whole entry): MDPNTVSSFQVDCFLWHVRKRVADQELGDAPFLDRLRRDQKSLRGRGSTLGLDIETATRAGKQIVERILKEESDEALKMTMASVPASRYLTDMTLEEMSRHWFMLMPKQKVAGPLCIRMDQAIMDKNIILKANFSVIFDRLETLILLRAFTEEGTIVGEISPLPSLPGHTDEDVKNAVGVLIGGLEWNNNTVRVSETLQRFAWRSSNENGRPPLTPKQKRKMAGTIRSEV
Chain of Induced myeloid leukemia cell differentiation protein Mcl-1 (Q07820 whole entry): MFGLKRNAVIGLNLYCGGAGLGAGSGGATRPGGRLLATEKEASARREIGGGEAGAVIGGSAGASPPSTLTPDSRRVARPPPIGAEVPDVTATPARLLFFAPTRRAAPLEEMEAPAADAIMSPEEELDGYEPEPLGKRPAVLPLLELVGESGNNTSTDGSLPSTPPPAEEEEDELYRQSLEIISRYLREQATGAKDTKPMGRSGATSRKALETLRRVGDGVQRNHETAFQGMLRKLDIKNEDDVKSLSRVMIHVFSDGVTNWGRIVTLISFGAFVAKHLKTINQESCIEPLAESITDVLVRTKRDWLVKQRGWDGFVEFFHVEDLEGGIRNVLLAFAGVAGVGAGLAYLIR

c1cncc(C2Nc3cccc4cccc(c34)N2)c1
IC50 [1]: 9.59 µM (active) | IC50 (Nonstructural protein 1): > 100 µM (active)

Cc1ccc(C)c(NC(=O)CSc2n[nH]c(-c3ccccn3)n2)c1
IC50 (Nonstructural protein 1): 5.46 µM (active) | AC50 [2]: 163 µM (active) | EC50 (Protein RecA): > 380 µM (inactive)

COc1ccccc1OCCN1CSC(=S)N(C)C1
CC50 [3]: 7.54 µM (active) | CC50 [4]: 6.71 µM (active) | AC50 [5]: 2.4 µM (active) | CC50 [6]: 5.83 µM (active) | AC50 [7]: 12.2 µM (active) | IC50 (cells): 6.69 µM (active)

Nc1n[nH]c(SCn2nnc3ccccc3c2=O)n1
IC50 (Coagulation factor XII): > 50 µM (inactive)

NNC(=O)c1ccc(CSc2nc3ccccc3s2)cc1
IC50 (Coagulation factor XII): > 50 µM (inactive)

Cc1ccc(C(=O)C(=O)c2ccc(C)c(N)c2)cc1N
IC50 (Coagulation factor XII): 15.7 µM (active)

CC(=O)N1CCC2(CC1)CN(C(c1ccccc1)c1ccccc1)C2
AC50 (Cytochrome P450 3A4): inconclusive

COc1ccc(CNC(=O)C2CSC(=O)C2)cc1 (stereo unspecified)
EC50 [8]: > 30 µM (not active) | EC50 [9]: 10.3 µM (active) | AC50 (Cytochrome P450 3A4): inconclusive

CC1CCCC(C2(O)C(=O)Nc3ccccc32)C1=O (stereo unspecified)
IC50 [10]: 5.46 µM (active) | IC50 [11]: 5.64 µM (active)

CN(C)c1ccc(NC(=O)CC(NCc2ccccn2)C(=O)O)cc1 (stereo unspecified)
IC50 (Nonstructural protein 1): 1.51 µM (active)

CCCN(C/C=C\I)[C@@H]1CCc2cccc(O)c2C1
AC50 (Cytochrome P450 3A4): inconclusive

CCN1C(NCCOC)=N[C@@H](c2cccc(C(F)(F)F)c2)C(C(=O)OC)=C1C
IC50 [10]: 2.09 µM (active) | IC50 [11]: 1.95 µM (active)

CCCCCCCSc1cc(OC)c(CCN(C)C)cc1OC
CC50 [12]: 21.3 µM (active) | EC50 [13]: 9.16 µM (active) | EC50 [14]: 7.83 µM (active) | IC50 [15]: > 20 µM (inactive) | IC50 (Nonstructural protein 1): 44.4 µM (active)

COc1ccc(/C=C2/SC(=S)N(n3c(C)ccc3C)C2=O)cc1
IC50 (Coagulation factor XII): > 50 µM (inactive)

O=C(NC(=S)N1CCN(Cc2ccc3c(c2)OCO3)CC1)c1ccc(Cl)cc1
CC50 [6]: 19.2 µM (active) | IC50 (cells): 18.1 µM (active)

COc1ccc(C(=O)Nc2cc(-c3ccccc3)ccc2C(=O)O)cc1
IC50 (Hexokinase): > 25 µM (inactive)

COc1ccc(C(=O)Nc2cc(Cl)ccc2O)cc1
IC50 (Hexokinase): 25 µM (inactive)

O=C(Nc1cc(Cl)ccc1C(=O)O)c1ccc(Cc2ccccc2)cc1
IC50 (Hexokinase): 13.6 µM (active)

COc1ccc(NC(=O)c2ccccc2C(=O)O)cc1
IC50 (Hexokinase): > 25 µM (inactive)
